Data on four molecules can be found in patent US20240287054A1, “COMPOUNDS THAT BIND NON-CANONICAL G-QUADRUPLEX STRUCTURES AND METHODS OF MAKING AND USING THE SAME” (The U.S.A., as Represented by the Secretary, Department of …, priority 2021, published 2024).

Molecules are shown by their SMILES. Some results are limits rather than exact numbers.

The test system of experiment [1] is MYCN G4 DNA. Description: DMS footprinting of 5′Cy5-labeled MYCN G4 DNA. In kind it is binding, human. How it is done:
DMS footprinting. Footprinting of 5′Cy5-labelled DNA was performed as described in the literature (Zhang et al., JACS 2014, 136:1381-1390; Li et al., PNAS 2015, 112:14581-14586). […] Then, DNA solutions were diluted to 50 nM in corresponding buffers (2 mL final volume in each tube) and compound stock solutions (in DMSO) were added resulting in solutions with designed concentrations (resulting in 5% DMSO). After incubation for 30 min, the folded DNA samples were treated with 0.5% DMS for 10 min at RT and the reaction was stopped by adding 200 μL stop buffer (2.5 M NH4OAc, 0.1 M β-mercaptoethanol, 1 mg/mL calf thymus DNA). After phenol/chloroform/isoamyl alcohol extraction and ethanol precipitation, the DNAs were dissolved in 50 μL of nuclease free water. An equal volume of 10% piperidine was added to each tube, and the mixed solutions were heated at 90° C. for 30 min, followed by quick chilling on ice. The DNAs were again subjected to phenol/chloroform/isoamyl alcohol extraction and ethanol precipitation. The precipitated DNAs were dissolved in 10 μL of nuclease free water, denatured at 95° C. for 5 min, and resolved on a 17% denaturing polyacrylamide gel. After gel running, Cy5-labeled DNA fragments were visualized on a Typhoon Imager (Amersham) and digitized using Image J software.
In this example, DMS-footprinting was conducted by using 5′-Cy5-labeled MYCN hairpin-G4 DNA. […]

For experiment [2], the target named is mutated/truncated MYCN G4 DNA. Briefly: FIA titration with mutated long loop and truncated (no hairpin) MYCN G4 DNAs. In kind it is binding, human. How it is done: (§1) Fluorescence intensity assay. In this disclosure, fluorescence intensity assay (FIA) was used for both validation of hit binding at a single dose and binding affinity determination. For validating hit compounds from SMM screening, 100 μM solution of each compound was prepared in triplicate in a 96 well-plate (Costar, black side clear bottom), resulting in 5% DMSO concentration. 5′Cy5-labeled MYCN G4 DNA was annealed as described above, then added into the well plate resulting in a final concentration of 100 nM. The plate was incubated shaking for 30 min, followed by centrifuging at 500 rpm for 2 minutes. The fluorescence intensity was then measured on a Synergy Mx microplate reader (BioTek) at Ex 649 nm/Em 670 nm. TMPyP4/DMSO were used as positive and negative controls, respectively. In certain examples, compounds were considered binders when a change of >10% change in fluorescence intensity was observed compared to that of negative control (DMSO solution). For binding affinity measurement, small molecule solutions were prepared as serial dilutions in DMSO. Then a final test plate was prepared by adding 5 μL small molecule solutions and 10 μL annealed DNA samples into 85 μL buffer solutions, resulting in the final small molecule concentrations from 0 to 250 μM (5% final DMSO concentration). The fluorescence intensities were normalized, and the binding affinity was calculated by fitting the curve using one-site total model in GraphPad Prism 8.3.1 software. The fluorescence titration using 3′-labeled oligonucleotides was also performed the same way.
To further understand the binding details between compound MY-1 and MYCN G4, a series of FIA studies were designed and performed. […] After incubating 100 μM MY-1 with labeled DNA samples, fluorescence intensities were measured and compared to DMSO controls. Fluorescence of the A11 2-AP DNA sample was quenched by almost 100%, while the quenching percentages were 80% and 70% for A18 and A24 2-AP DNAs, respectively (FIG. 24B, FIGS. 25A-25C). […]

For experiment [3], the system named is dsDNA. Description: CD melting test of dsDNA. It counts as binding. The conditions noted are these: CD melting of dsDNA with compound.
In experiment [4] the target is MYCN G4 DNA. Briefly: Fluorescence intensity assay (FIA) with 5′Cy5-labeled MYCN G4 DNA. In kind it is binding, human. Particulars: for Kd: 5′Cy5-labeled MYCN G4 titrated with compound; for positive binding in FIA (>10% quenching): single concentration 100 μM compound, 5′Cy5-MYCN G4. How it is done:
as §1

Experiment [5] addresses MYCN G4 DNA (2-AP at A11). Briefly: 2-Aminopurine (2-AP) fluorescence titration, A11-labeled MYCN G4. The conditions noted are these: 2-AP at A11 of MYCN G4. It counts as binding, human. The procedure: 2-Aminopurine (2-AP) fluorescence titration. Fluorescence titrations based on 2-aminopurine labeling were performed using the protocol reported previously. Briefly, MYCN G4 oligonucleotide with a 2-AP substitution at either A11 or A18 position was annealed by heating the sample to 95° C. for 5 min and cooling down to RT slowly. The oligonucleotide with folded structure was diluted to 10 μM in Tris buffer (10 mM Tris, pH7.0, 100 mM KCl, 0.005% Tween 20) and prepared in a black 96-well plate (Costar) in triplicate as designed. Small molecules were diluted in DMSO to obtain a series of solutions with concentrations ranging from 0.1 to 5 mM, and then diluted by 20 times added into the plate (5% DMSO final concentration). The final concentration of 2-AP DNA was 1 μM in the well plate. To obtain the background fluorescence, small molecule solutions without DNA were also prepared in the same plate. After incubation for 30 min at RT, the plate was briefly centrifuged and scanned in Synergy Mx microplate reader (BioTek) with Ex 310 nm/Em 365 nm. Fluorescence signals were calculated by averaging the intensities in triplicate wells after subtracting the references. Finally, the binding signals were normalized and the KD value was determined by fitting the curve using a nonlinear sigmoidal dose-response model with a variable slope in GraphPad Prism 8.3.1 software.

Regarding `COc1ccc(-c2noc(-c3ccc(NCCCNc4c5ccc(Cl)cc5nc5ccc(OC)cc45)nn3)n2)cc1` [B33, N^1-(6-chloro-2-methoxyacridin-9-yl)-N^3-(6-(3-(4-methoxyphenyl)-1,2,4-oxadiazol-5-yl)pyridazin-3-yl)propane-1,3-diamine], the “protection of guanines from DMS” value in experiment [1] (10 mM LiCl + 10 mM NaCl Tris buffer, 0-100 nM compound) was “protection of G2-9, G10-12, and G17-21”.
As for `CCCN1CCN(c2nnc(-n3cccc3CNCCCN3CCCCCC3)s2)CC1` [Compound 1], the “binding affinity to mutated long loop and truncated MYCN G4 DNAs” value in experiment [2] (5′-Cy5 labeled constructs without hairpin) was “comparable to wild type”. Moreover, the “effect on dsDNA melting” value in experiment [3] was “Neither of the compounds showed a measurable effect”. For the same molecule, in experiment [4], the Kd was 20.8 ± 2.2 µM and the “positive binding in FIA (>10% quenching)” value was “hits”.
Take `COc1ccc(-c2noc(-c3ccc(NCCCN4CCCC4)nn3)n2)cc1` [MY-1, 6-(3-(4-methoxyphenyl)-1,2,4-oxadiazol-5-yl)-N-(3-(pyrrolidin-1-yl)propyl)pyridazin-3-amine]: the Kd was over 100 µM in experiment [2] (5′-Cy5 labeled constructs without hairpin, read-out: binding affinity to mutated long loop and truncated MYCN G4 DNAs); 3.2 ± 0.6 µM in experiment [5]; 3.5 ± 1.6 µM in experiment [4]. The “fold weaker binding than wild type MYCN G4” value in experiment [2] (mutated/truncated vs wild type) is reported as about 30 fold. Besides, the “effect on dsDNA melting” value in experiment [3] was “Neither of the compounds showed a measurable effect”. For the same molecule, the “protection of guanines from DMS” value in experiment [1] (5 mM KCl buffer, compound at concentrations according to KD) is given as “G8, G9, G16, G17 were protected considerably, while G13-G15 were slightly protected”. The “positive binding in FIA (>10% quenching)” value in experiment [4] is reported as “hits”.
Take `COc1ccc(-c2noc(-c3ccc(NCCCN4CCCCCC4)nn3)n2)cc1` [MY-8, N-(3-(azepan-1-yl)propyl)-6-(3-(4-methoxyphenyl)-1,2,4-oxadiazol-5-yl)pyridazin-3-amine]: in experiment [5], the “A11 2AP KD” value was “sub-micromolar binders” and the Kd was determined as 0.6 ± 0.2 µM.
